# Literature values, collected in patent publication US9504662B2, “Composition for skin improvement comprising hexamidines and retinoids” (AMOREPACIFIC CORPORATION, priority 2009, dated 2016).
# Conditions: 4 μM of retinol vs 100 nM of Isotretinoin; general statement, no method given
smiles,measurement,value
CC1=C(/C=C/C(C)=C/C=C/C(C)=C/CO)C(C)(C)CCC1 [retinol],sebum-inhibiting effect,substantially has the same degree of sebum-inhibiting effect as 100 nM of Isotretinoin
